According to US7601715B2, “Process for preparing triazole substituted azaindoleoxoacetic piperazine derivatives and novel salt forms produced therein” (Bristol-Myers Squibb Company, priority 2005, dated 2009):

Test: Moisture-sorption isotherm (VTI SGA-100 Symmetric Vapor Analyzer)
Assay type: physicochemical
Settings: range from about 25% RH to about 75% RH at 25° C.; FIG. 8
Protocol: 10. Moisture-sorption isotherms were collected in a VTI SGA-100 Symmetric Vapor Analyzer using approximately 10 mg of sample. The sample was dried at 60° C. until the loss rate of 0.0005 wt %/min was obtained for 10 minutes. The sample was tested at 25° C. and 3 or 4, 5, 15, 25, 35, 45, 50, 65, 75, 85, and 95% RH. Equilibration at each RH was reached when the rate of 0.0003 wt %/min for 35 minutes was achieved or a maximum of 600 minutes.

weight gain / weight water uptake (moisture-sorption isotherm): about 0.1%
SMILES: O=C(C(=O)N1CCN(C(=O)c2ccccc2)CC1)c1c[nH]c2c(-n3ccnn3)ncc(F)c12
